# Reference: PMC2949447 (The Journal of steroid biochemistry and molecular biology, 2010)
# Columns and labels:
# castrate rats = details: single sc injection 1.2 mg/rat, castrate 22 day-old rats; ref [5] and unpublished observations; cited from earlier work
# [1] = test system: castrate immature male Sprague-Dawley rats; test: sc androgenic assay in castrate immature rats; assay type: in vivo, rat
# [2] = test system: castrate immature male Sprague-Dawley rats; test: Effect of dutasteride in the sc androgenic assay; assay type: in vivo, rat; details: 8 days; for effect of concurrent DUT on androgen-stimulated VP and SV weights: maximal stimulatory sc dose of androgen ± DUT 1.0 mg/day orally
# [3] = test system: recombinant human aromatase; details: conditions allowing complete conversion of T to estradiol; ref [13]; cited from earlier work
# [4] = Serum androgen levels by RIA in androgen ± dutasteride treated rats; details: for effect of concurrent DUT on serum level of the administered androgen: androgen sc ± DUT 1.0 mg/day orally, blood 2 h after final dose; for serum DHT levels: n=10
# [5] = test system: rat liver or prostate homogenates; details: ref Sundaram et al. [1]; cited from earlier work
# [6] = biological target: T1, rat AR ligand binding domain (ARLBD) (Rattus norvegicus, UniProt P15207); test: Competitive binding to purified rat AR ligand binding domain; details: RBA = IC50 R1881/IC50 test compound X 100; R1881 defined as 100%
# T1 sequence (P15207 651-882 limits assumed): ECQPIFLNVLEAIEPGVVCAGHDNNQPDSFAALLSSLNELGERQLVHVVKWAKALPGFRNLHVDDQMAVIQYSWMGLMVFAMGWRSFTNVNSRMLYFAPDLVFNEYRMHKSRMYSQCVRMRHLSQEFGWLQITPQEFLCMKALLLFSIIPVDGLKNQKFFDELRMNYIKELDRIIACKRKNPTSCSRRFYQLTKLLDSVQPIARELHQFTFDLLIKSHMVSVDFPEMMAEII
compound,measurement,setting,value
"CCCCCCCCCCCCOC(=O)O[C@H]1CC[C@H]2[C@@H]3CCC4=CC(=O)CC[C@@H]4[C@H]3[C@@H](C)C[C@]12C [MNTDC, 11β-methyl-19-nortestosterone 17β-dodecylcarbonate]",duration VP and SV growth maintained above castrate levels,castrate rats,~14 weeks
"C[C@@H]1CC2=CC(=O)CC[C@@H]2[C@@H]2[C@@H]1[C@@H]1CC[C@H](O)[C@@]1(C)C[C@@H]2C [DMA, 7α,11β-dimethyl-19-nortestosterone]","anabolic activity (stimulation of LA muscle weight), comparison","[1]; sc, Fig. 1b",greater than that of 5α-DHDMA or T
same,effect of concurrent DUT on androgen-stimulated VP and SV weights,[2],did not affect VP or SV weights
same,aromatization to aromatic A-ring estrogen,[3],not aromatized
same,effect of concurrent DUT on serum level of the administered androgen,[4]; 8 days,not significantly different
"C[C@]12CC[C@H]3[C@@H](CCC4=CC(=O)CC[C@@]43C)[C@@H]1CC[C@@H]2O [T, Testosterone]",effect of concurrent DUT on androgen-stimulated VP and SV weights,[2],significantly blunted
same,effect of concurrent DUT on serum DHT in T-treated rats,"[4]; T sc + DUT 1.0 mg/day orally, 8 days",suppressed to levels observed in castrate vehicle-treated rats
same,effect of concurrent DUT on serum level of the administered androgen,[4]; 8 days,significantly elevated
same,serum DHT levels,"[4]; rats treated sc with 0.23 mg T alone for 8 days, 2 h after final dose","1,247 ± 106 pg/ml"
"C[C@@H]1C[C@H]2CC(=O)CC[C@@H]2[C@@H]2[C@@H]1[C@@H]1CC[C@H](O)[C@@]1(C)C[C@@H]2C [5α-DHDMA, 5α-dihydroDMA]",androgenic potency as percent of DMA (ventral prostate growth),[1]; sc 7 days,30-40%
"C[C@]12CCC(=O)C[C@@H]1CC[C@@H]1[C@@H]2CC[C@]2(C)[C@@H](O)CC[C@@H]12 [DHT, 5α-dihydrotestosterone]",effect of concurrent DUT on androgen-stimulated VP and SV weights,[2],comparable
same,effect of concurrent DUT on serum level of the administered androgen,[4]; 8 days,not significantly different
"C[C@]12C=CC(=O)N[C@@H]1CC[C@@H]1[C@@H]2CC[C@]2(C)[C@@H](C(=O)Nc3cc(C(F)(F)F)ccc3C(F)(F)F)CC[C@@H]12 [DUT, 17β-N-2,5-bis-[trifluoromethyl]-phenylcarbamoyl-4-aza-5a-androstan-1-en-3-one]",toxicity judged by suppression of body weights,[2]; DUT 10 mg/day orally,showed evidence of toxicity
same,effect on VP and SV weights in T-treated rats,"[2]; DUT 0.1, 1.0 or 10.0 mg/day orally with T 0.23 mg/day sc",significantly decreased
same,serum DHT levels,"[4]; T 0.23 mg sc + DUT 0.1 mg/rat orally, 8 days",606 ± 111 pg/mL
same,serum DHT levels,"[4]; T 0.23 mg sc + DUT 1.0 mg/rat orally, 8 days",235 ± 36 pg/mL
same,serum DHT levels,"[4]; T 0.23 mg sc + DUT 10 mg/rat orally, 8 days",56 ± 4 pg/mL
"C[C@@H]1CC2=CC(=O)CC[C@@H]2[C@H]2CC[C@]3(C)[C@@H](O)CC[C@H]3[C@@H]21 [MENT, 7α-methyl-19-nortestosterone]",effect of concurrent DUT on androgen-stimulated VP and SV weights,[2],comparable
same,5α-reduction,[5],not 5α-reduced
same,effect of concurrent DUT on serum level of the administered androgen,[4]; 8 days,significantly decreased
"CCCCCCCCCCC(=O)O[C@H]1CC[C@H]2[C@H]3[C@H]([C@@H](C)C[C@]12C)[C@H]1CCC(=O)C=C1C[C@H]3C [DMAU, dimethandrolone 17β-undecanoate]",duration VP and SV growth maintained above castrate levels,castrate rats,about 21 weeks
"C[C@H]1C[C@]2(C)[C@@H](O)CC[C@H]2[C@@H]2CCC3=CC(=O)CC[C@@H]3[C@H]21 [MNT, 11β-methyl-19-nortestosterone]",effect of concurrent DUT on androgen-stimulated VP and SV weights,[2],did not affect VP or SV weights
same,aromatization to aromatic A-ring estrogen,[3],not aromatized
same,effect of concurrent DUT on serum level of the administered androgen,[4]; 8 days,higher
"C[C@@H]1C[C@H]2CC(=O)CC[C@@H]2[C@H]2CC[C@]3(C)[C@@H](O)CC[C@H]3[C@@H]21 [5α-DHMENT, 5α-dihydroMENT]",Binding to ARLBD RBA,[6],26%
